# Measured values from PMC10425210 (The Journal of Clinical Investigation, 2023).
# Where “and” joins values, the source holds several entries; their conditions need not be identical. Equal entries are not always repeated.
# Tests used:
# SHIV-SF162P3 = test: Antiviral assay in rhesus PBMCs acutely infected with SHIV.SF162P3; type: cell-based, rhesus macaque; settings: for SHIV Replication (Mean): representative assay, N 3
# Method: Freshly isolated PBMCs from 3 male Indian rhesus macaque (Macaca mulatta) donors were obtained from Human Cells Biosciences. Rhesus PBMCs were cultured in RPMI-1640 cell culture media (Life Technologies) supplemented with 10% heat-inactivated FBS (Hyclone), 2 mM glutamine, and 100 units/mL penicillin plus 100 μg/mL streptomycin (complete RPMI). Prior to their use in antiviral assays, PBMCs from 3 independent donors were pooled and activated at a density of 3 × 10^6 cells per mL for 72 hours at 37°C by addition of 1 μg/mL PHA (Sigma-Aldrich) and 50 units/mL recombinant human IL-2 (Roche Diagnostics).
# Briefly, PHA/IL-2–stimulated rhesus PBMCs were infected in bulk culture with SHIV.SF162P3 at a concentration of 130 pg p27 equivalent per million PBMCs. Cells were maintained in suspension by gently rocking the cultures mixed with virus inoculum for 3 hours at 37°C. Cells were then pelleted by centrifugation at 500g for 5 minutes, washed twice with complete RPMI to remove any unadsorbed virus, and seeded into 96-well plates at a cell density of 2 × 10^5 cells per well in 100 μL. […] Cultures were incubated in a 5% CO2 incubator at 37°C for 7 days. The cell-free supernatants derived from the PBMC cultures were harvested 7 days after infection, and the amount of SHIV present was quantified using a SIV p27 antigen capture ELISA assay (item 5436, Advanced Bioscience Laboratories Inc.) performed according to the manufacturer’s protocol.
# [1] = Safety and tolerability of subcutaneous LEN dosing; type: in vivo, rhesus macaques
# Text: Injections at all dose levels were generally well tolerated without notable clinical observations. […] Grade 1 edema and/or erythema was observed across multiple time points and animals from all 5 dose groups and was fully resolved by week 11 after dose.
# All animals were housed at Bioqual Inc. For the in vivo SHIV stock titration study, 8 untreated outbred Indian-origin male rhesus macaques aged 3–5 years were challenged intrarectally per round for a total of 5 challenge rounds using increasing virus doses ranging from 0.625 to 100 TCID50, with the 100 TCID50 round performed twice for increased resolution (Supplemental Table 2). Plasma viral load was measured to confirm the infection status. […] Injection sites were monitored daily by veterinary staff for 2 weeks and then weekly through the end of study. On week 7, 11 animals were challenged by the intrarectal route with 1 mL RPMI containing 100 TCID50 SHIV-SF162P3. Whole blood was collected and processed into plasma and PBMCs as necessary for the assessment of routine hematology and clinical chemistry, viral load analysis, serology, and the bioanalysis of drug levels. Animals were considered protected if they remained SHIV negative by a plasma PCR assay and seronegative by enzyme immunoassay through week 10 after challenge.
smiles,measurement,setting,value
"CC(C)(C#Cc1ccc(-c2ccc(Cl)c3c(NS(C)(=O)=O)nn(CC(F)(F)F)c23)c([C@H](Cc2cc(F)cc(F)c2)NC(=O)Cn2nc(C(F)(F)F)c3c2C(F)(F)[C@@H]2C[C@H]32)n1)S(C)(=O)=O [LEN, Lenacapavir]",SHIV Replication (Mean),SHIV-SF162P3; LEN 0.011 nM,98
same,SHIV Replication (Mean),SHIV-SF162P3; LEN 0.034 nM,91
same,SHIV Replication (Mean),SHIV-SF162P3; LEN 0.103 nM,99
same,SHIV Replication (Mean),SHIV-SF162P3; LEN 0.309 nM,60
same,SHIV Replication (Mean),SHIV-SF162P3; LEN 0.926 nM,18
same,SHIV Replication (Mean),SHIV-SF162P3; LEN 2.778 nM,1
same,SHIV Replication (Mean),SHIV-SF162P3; LEN 8.333 nM,0
same,SHIV Replication (Mean),SHIV-SF162P3; LEN 25 nM,0
same,EC50,"SHIV-SF162P3; Macaca mulatta, PBMC, 168 h",0.39 ± 0.16 nM
same,paEC95 (protein-adjusted EC95),"SHIV-SF162P3; SHIV, rhesus PBMCs, EC95 x rhesus plasma shift",8.80 nM and 8.8 nM and 8.80 ± 3.69^E nM
same,EC95,"SHIV-SF162P3; SHIV-SF162P3, rhesus PBMCs, EC95 = EC50 x (95/5)^1/n",0.91 nM and 0.91 ± 0.38 nM
same,safety and tolerability of subcutaneous injection,"[1]; all dose levels tested, 5-75 mg/kg",safe and well tolerated
same,time by which Grade 1 edema and/or erythema was fully resolved,"[1]; male, outbred Indian-origin, rhesus monkey, in vivo",≤ 11 week after dose
same,Hematology analyses,"[1]; rhesus monkey, in vivo",no abnormal values
